According to article PMC3111455, “Matrix Metalloproteinase-8 Mediates the Unfavorable Systemic Impact of Local Irradiation on Pharmacokinetics of Anti-Cancer Drug 5-Fluorouracil” (PLoS ONE, 2011):
Like-named read-outs stand apart in the source and are kept apart here.

How the values were obtained:
[1] = Plasma pharmacokinetics of 5-FU in rats after whole pelvic irradiation; format: in vivo, Sprague-Dawley rats; settings: for AUC / Cmax / MRT / clearance / half-life / Vd: Sprague-Dawley, rat, iv, 100 mg/kg, 5-FU 100 mg/kg i.v.; for Vd: read-out: Vss
Method: The rats were anesthetized with urethane 1 g/ml and α-chloralose 0.1 g/ml (1 ml/kg by intraperitoneal injection), and were immobilized on a board when undergoing computed tomography for simulation of the whole pelvic field. The cranial margin was set at the top of the bilateral iliac crests for the whole pelvic field (Fig. 7). Conventional radiotherapy was used to deliver the radiation dose via the anterior-posterior (AP) and PA portals. The experimental animals were randomized to the control, 2-Gy alone, 5-FU alone, 0.5-Gy followed by 5-FU, and 2-Gy followed by 5-FU groups. Each group's data was collected from six rats.
(§1) Twenty hours after RT, the rats were administered 100 mg/kg of 5-FU in 2 mL of normal saline by intravenous infusion into the femoral vein over a 2-min period. A 150-µL blood sample was withdrawn from the jugular vein with a fraction collector according to a programmed schedule at 5, 15, 30, 45, and 60 min, and 1.5, 2, 2.5, and 3 h following drug administration. The blood samples were immediately centrifuged at 3300×g for 10 min. The resulting plasma (50 µL) was added to 1 mL of ethyl acetate in a clean tube, vortexed for 5 min, and centrifuged at 5900×g for 10 min. After centrifugation, the upper organic layer containing the ethyl acetate was transferred to a new tube and evaporated to dryness under flowing nitrogen. The dried residue was reconstituted with 50 µL of Milli-Q water (Millipore). A 20-µL aliquot of the solution was injected to the high performance liquid chromatography-ultraviolet (HPLC-UV) detection system.
(§2) Chromatographic analysis was performed on a Model LC-20AT HPLC system (Shimadzu, Tokyo, Japan) equipped with a Model SPD-20A wavelength UV detector, SIL-20AC autosampler, and an LC Solution data processing system. A LiChroCART RP-18e column (Purospher, 250 mm, 5 µm, Merck, Darmstadt, Germany) with a LiChroCART 4-4 guard column was used for separation. The mobile phase comprised […] potassium phosphate-methanol (99∶1, v/v, pH 4.5 adjusted by 85% phosphoric acid), and the flow rate of the mobile phase was 1 ml/min. The detection wavelength was set at 266 nm. Under these conditions, the retention time of 5-FU was 5.4 min. […] Good linearity was achieved over the range of 0.01–5 µg/ml, with all coefficients of correlation greater than 0.998. All samples were freshly prepared, including the standard solutions, from the same stock solution (5 mg/mL). The 0.01-µg/mL limit of quantification was defined the lowest concentration on the calibration curve that could be measured routinely with acceptable bias and relative SD. The overall mean precision, defined by the relative SD, ranged from 0.2% to 11.0%. Analytical accuracy was expressed as the percentage difference of the mean observed values compared to known concentrations varying from −10.0% to 14.0%. The recovery results for concentrations of 0.1–10 µg/mL were 92.0%–94.0%
(§3) Pharmacokinetic parameters including the AUC for concentration versus time, terminal elimination phase t1/2, Cmax, MRT, total plasma clearance and Vss were calculated using the pharmacokinetics calculation software WinNonlin Standard Edition, Version 1.1 (Scientific Consulting, Apex, NC, USA) using a compartmental method.

[2] = Bile pharmacokinetics of 5-FU in rats after whole pelvic irradiation; format: in vivo, Sprague-Dawley rats; settings: for AUC / Cmax / MRT / clearance / half-life / Vd: Sprague-Dawley, rat, iv, 100 mg/kg, 5-FU 100 mg/kg i.v.; for Vd: read-out: Vss
[3] = Plasma pharmacokinetics of 5-FU in rats with or without MMP-8 inhibitor before whole pelvic irradiation 2 Gy; format: in vivo, Sprague-Dawley rats; settings: for AUC / Cmax / MRT / clearance / half-life / Vd: Sprague-Dawley, rat, iv, 100 mg/kg, 5-FU 100 mg/kg i.v.; for Vd: read-out: Vss
Method: as §1, §2
MMP-8 inhibitor I (Calbiochem, La Jolla, CA) was administered to the rats to examine whether or not RT modulation of 5-FU pharmacokinetic parameters could be blocked. Briefly, MMP-8 inhibitor I was dissolved in PEG400/ethanol [4∶1 (v/v)] solution, yielding a final concentrations of 5 mg/mL. Two hours before irradiation, 10 mg/kg of MMP-8 inhibitor I was infused into the rat's tail vein over a 2-min period. After that, the rats were anesthetized with urethane 1 g/ml and α-chloralose 0.1 g/ml (1 ml/ kg by intraperitoneal injection), and were immobilized on a board to undergo computed tomography for simulation of the whole pelvic field and received irradiation, as described previously. The experimental animals were randomized to control without PEG400/ethanol [4∶1 (v/v)] solution (0 Gy), control with solvent (0 Gy), whole pelvic irradiation (2 Gy) with solvent and whole pelvic irradiation (2 Gy) with MMP-8 inhibitor and solvent groups, respectively. After RT sham RT 20 hrs, all rats received 5-FU (100 mg/kg) injections and the pharmacokinetic parameters of 5-FU were analyzed. Each group's data was collected from four rats.
as §3

[4] = tested on: alanine aminotransferase (ALT); assay: Evaluation of hepatic function (plasma ALT); format: in vivo; settings: rats
Method: The plasma levels of alanine aminotransferase (ALT) were measured to check the influence of different modalities for hepatic function by a standard colorimetric method using a Synchron LX20 spectrophotometer (Beckman Coulter) and manufacturer-supplied reagents.

[5] = design: method as in PMID 9188061; settings: rats, mean ± SD, cited from earlier work
[6] = cited from earlier work
HepG2 [7] = assay: Intracellular 5-FU levels with or without recombinant MMP-8 by HPLC; format: cell-based, Human; settings: 10 µg/mL recombinant MMP-8 plus 50 µM 5-FU vs 50 µM 5-FU alone, up to 60 min
Method: as §2, with “92.0%–94.0% […]” for “92.0%–94.0%”

HepG2 [8] = assay: Viability/toxicity of 5-FU-treated HepG2 with or without recombinant MMP-8; format: cell-based, Human; settings: 5-FU-treated with or without recombinant MMP-8, data not shown
[9] = whole pelvic irradiation 0.5 Gy
[10] = plasma, controls without solvent
[11] = plasma, whole pelvic irradiation 2 Gy with solvent
[12] = plasma, plasma, whole pelvic irradiation 2 Gy with solvent and MMP-8 inhibitor (10 mg/kg, 2 h before irradiation)
[13] = MMP-8 inhibitor 10 mg/kg 2 h before 2 Gy

Q: With `O=c1[nH]cc(F)c(=O)[nH]1` [5-FU, 5-fluorouracil] as the compound, how does the “reduction of the AUC of 5-FU by pelvic irradiation” value ([1]; 0.5 Gy vs non-irradiated controls, P = 0.019) read?
A: 17.6%

Q: And the “reduction of the AUC of 5-FU by pelvic irradiation” value ([1]; 2 Gy vs non-irradiated controls, P = 0.008)?
A: 21.5%

Q: And the AUC ([1]; controls 0 Gy)?
A: 78800 ng·h/mL

Q: What about the Cmax ([1]; controls 0 Gy) of the same compound?
A: 164 ± 36 µg/mL

Q: And the MRT ([1]; controls 0 Gy)?
A: 36.5 min

Q: What about the clearance ([1]; controls 0 Gy) of the same compound?
A: 21.3 ± 1.9 mL/min/kg

Q: And the half-life ([1]; controls 0 Gy)?
A: 34.7 ± 9.6 min

Q: And the Vd ([1]; controls 0 Gy)?
A: 0.778 ± 0.088 L/kg

Q: And the AUC [1, 9]?
A: 64900 ng·h/mL

Q: And the Cmax [1, 9]?
A: 167 ± 23 µg/mL

Q: What about the MRT [1, 9] of the same compound?
A: 30.9 min

Q: And the clearance [1, 9]?
A: 25.8 ± 2 mL/min/kg

Q: And the half-life [1, 9]?
A: 24.7 ± 3.5 min

Q: And the Vd [1, 9]?
A: 0.775 ± 0.116 L/kg

Q: And the AUC ([1]; whole pelvic irradiation 2 Gy)?
A: 61900 ng·h/mL

Q: And the Cmax ([1]; whole pelvic irradiation 2 Gy)?
A: 179 ± 19 µg/mL

Q: And the MRT ([1]; whole pelvic irradiation 2 Gy)?
A: 25 min

Q: And the clearance ([1]; whole pelvic irradiation 2 Gy)?
A: 27.3 ± 3.6 mL/min/kg

Q: What about the half-life ([1]; whole pelvic irradiation 2 Gy) of the same compound?
A: 29.9 ± 7.1 min

Q: What about the Vd ([1]; whole pelvic irradiation 2 Gy) of the same compound?
A: 0.67 ± 0.06 L/kg

Q: And the “increase of the AUC of 5-FU in bile by pelvic irradiation” value ([2]; 0.5 Gy vs non-irradiated controls)?
A: 25.1%

Q: What about the “increase of the AUC of 5-FU in bile by pelvic irradiation” value ([2]; 2 Gy vs non-irradiated controls) of the same compound?
A: 30.6%

Q: What about the AUC ([2]; controls 0 Gy) of the same compound?
A: 19700 ng·h/mL

Q: What about the Cmax ([2]; controls 0 Gy) of the same compound?
A: 129 ± 22 µg/mL

Q: And the MRT ([2]; controls 0 Gy)?
A: 8.9 min

Q: What about the clearance ([2]; controls 0 Gy) of the same compound?
A: 84.8 ± 3.6 mL/min/kg

Q: And the half-life ([2]; controls 0 Gy)?
A: 9.2 ± 0.4 min

Q: What about the Vd ([2]; controls 0 Gy) of the same compound?
A: 0.754 ± 0.102 L/kg

Q: And the AUC [2, 9]?
A: 24600 ng·h/mL

Q: What about the Cmax [2, 9] of the same compound?
A: 120 ± 14 µg/mL

Q: And the MRT [2, 9]?
A: 11.1 min

Q: What about the clearance [2, 9] of the same compound?
A: 67.9 ± 3.6 mL/min/kg

Q: And the half-life [2, 9]?
A: 10.3 ± 0.5 min

Q: What about the Vd [2, 9] of the same compound?
A: 0.753 ± 0.025 L/kg

Q: What about the AUC ([2]; whole pelvic irradiation 2 Gy) of the same compound?
A: 25700 ng·h/mL

Q: What about the Cmax ([2]; whole pelvic irradiation 2 Gy) of the same compound?
A: 93 ± 6 µg/mL

Q: What about the MRT ([2]; whole pelvic irradiation 2 Gy) of the same compound?
A: 13.9 min

Q: What about the clearance ([2]; whole pelvic irradiation 2 Gy) of the same compound?
A: 65.1 ± 4.3 mL/min/kg

Q: And the half-life ([2]; whole pelvic irradiation 2 Gy)?
A: 12.9 ± 2.8 min

Q: And the Vd ([2]; whole pelvic irradiation 2 Gy)?
A: 0.903 ± 0.055 L/kg

Q: And the AUC ([3]; plasma, controls with solvent)?
A: 71400 ng·h/mL

Q: And the Cmax ([3]; plasma, controls with solvent)?
A: 146 ± 35 µg/mL

Q: And the MRT ([3]; plasma, controls with solvent)?
A: 36 min

Q: And the clearance ([3]; plasma, controls with solvent)?
A: 23.4 ± 0.8 mL/min/kg

Q: What about the half-life ([3]; plasma, controls with solvent) of the same compound?
A: 27.8 ± 3 min

Q: And the AUC [3, 10]?
A: 71400 ng·h/mL

Q: And the Cmax [3, 10]?
A: 151 ± 17 µg/mL

Q: And the MRT [3, 10]?
A: 37 min

Q: What about the clearance [3, 10] of the same compound?
A: 23.4 ± 1.1 mL/min/kg

Q: What about the half-life [3, 10] of the same compound?
A: 33.3 ± 16.1 min

Q: What about the AUC [3, 11] of the same compound?
A: 55100 ng·h/mL

Q: And the Cmax [3, 11]?
A: 132 ± 51 µg/mL

Q: And the MRT [3, 11]?
A: 26 min

Q: And the clearance [3, 11]?
A: 30.3 ± 0.3 mL/min/kg

Q: And the half-life [3, 11]?
A: 31 ± 8.8 min

Q: And the Vd ([3]; plasma, plasma, controls with solvent)?
A: 0.836 ± 0.097 L/kg

Q: What about the Vd ([3]; plasma, plasma, controls without solvent) of the same compound?
A: 0.859 ± 0.022 L/kg

Q: What about the AUC [3, 12] of the same compound?
A: 66000 ng·h/mL

Q: And the Cmax [3, 12]?
A: 122 ± 29 µg/mL

Q: What about the MRT [3, 12] of the same compound?
A: 36 min

Q: What about the clearance [3, 12] of the same compound?
A: 25.4 ± 2.8 mL/min/kg

Q: What about the half-life [3, 12] of the same compound?
A: 32.3 ± 9.9 min

Q: And the Vd [3, 12]?
A: 0.911 ± 0.127 L/kg

Q: And the Vd ([3]; plasma, plasma, whole pelvic irradiation 2 Gy with solvent)?
A: 0.784 ± 0.11 L/kg

Q: What about the “alanine aminotransferase (ALT) levels vs control group” value ([4]; 0.5 Gy followed by 5-FU) of the same compound?
A: no significant difference

Q: And the “alanine aminotransferase (ALT) levels vs control group” value ([4]; 2 Gy followed by 5-FU)?
A: no significant difference

Q: What about the “alanine aminotransferase (ALT) levels vs control group” value ([4]; 5-FU-treated only) of the same compound?
A: no significant difference

Q: What about the “dose-normalized area under the curve (AUC)” value (“dose-normalized area” below) ([5]; 10 mg/kg) of the same compound?
A: 0.43 ± 0.11 mg·h/L/mg

Q: What about the “dose-normalized area” value ([5]; 50 mg/kg) of the same compound?
A: 0.50 ± 0.16 mg·h/L/mg

Q: And the “dose-normalized area” value ([5]; 100 mg/kg)?
A: 1.14 ± 0.55 mg·h/L/mg

Q: And the “fraction catabolyzed by the liver via the dihydropyrimidine dehydrogenase (DPD) pathway” value [6]?
A: About 80%

Q: Which “effect on the decreased MRT of 5-FU caused by irradiation” value [3, 13] does the source give for `COc1ccc(S(=O)(=O)N2Cc3ccccc3C[C@@H]2C(=O)NO)cc1` [MMP-8 inhibitor] here?
A: completely reversed

Q: What about the “effect on the increased clearance value of 5-FU caused by irradiation” value [3, 13] of the same compound?
A: completely reversed

Q: What about the “effect of pretreatment on the decline in AUC of 5-FU caused by pelvic irradiation” value ([3]; MMP-8 inhibitor 10 mg/kg 2 h before 2 Gy, P<0.05) of the same compound?
A: significantly attenuated

Q: What about the “effect of MMP-8 inhibitor alone on the AUC of 5-FU” value ([3]; plasma, in comparison with the controls) of the same compound?
A: Neither the MMP-8 inhibitor alone nor its vehicle had a significant effect

Q: Which “effect on the AUC of intracellular 5-FU” value (HepG2 [7]) does the source give for “recombinant MMP-8: recombinant matrix metalloproteinase-8, 10 µg/mL added to HepG2 cells” here?
A: no significant effect

Q: What about the “toxicity to HepG2” value (HepG2 [8]) of the same compound?
A: no significant toxicity
